Reference: the NIST ThermoML archive (doi:10.1021/acs.jced.7b00023)
Numbers after ± are expanded uncertainties.

Tests used:
[1] = wn = mass fraction of the nth substance listed; conditions: 101.3 kPa, Liquid, Vibrating tube method
[2] = refractive index (Na D-line) (dimensionless); wn = mass fraction of the nth substance listed; conditions: 101.3 kPa, Liquid, Standard Abbe refractometry

| Structure (SMILES) | mass density ([1]; 298.15 K, w1 = 0.6538) [kg/m3] | mass density ([1]; 308.15 K, w1 = 0.6693) [kg/m3] | mass density ([1]; 318.15 K, w1 = 0.6788) [kg/m3] | refractive index ([2]; 298.15 K, w1 = 0.6538) | refractive index ([2]; 308.15 K, w1 = 0.6693) | refractive index ([2]; 318.15 K, w1 = 0.6788) | mass density ([1]; 298.15 K, w1 = 0.263) [kg/m3] | mass density ([1]; 308.15 K, w1 = 0.2666) [kg/m3] | mass density ([1]; 318.15 K, w1 = 0.2669) [kg/m3] | refractive index ([2]; 298.15 K, w1 = 0.263) | refractive index ([2]; 308.15 K, w1 = 0.2666) | refractive index ([2]; 318.15 K, w1 = 0.2669) |
| --- | --- | --- | --- | --- | --- | --- | --- | --- | --- | --- | --- | --- |
| [Cl-].[Cs+] [cesium chloride] + O | 1923.9 ± 3.6 | 1946.1 ± 3.6 | 1980.8 ± 3.7 | 1.4196 ± 0.002 | 1.4204 ± 0.002 | 1.4218 ± 0.002 | – | – | – | – | – | – |
| [Cl-].[Na+] [sodium chloride] + O | – | – | – | – | – | – | 1197.8 ± 3.1 | 1193.6 ± 3.1 | 1188.9 ± 3.1 | 1.3796 ± 0.002 | 1.3781 ± 0.002 | 1.3766 ± 0.002 |
